Assays:
[1] = test system: S. mutans; assay: Agar plate zone of growth inhibition; type: cell-based, Streptococcus mutans; conditions: for inhibition of S. mutans (summary): 1% in 100% ethanol
Protocol: (§1) The higher alcohols were tested for antimicrobial activity against Gram positive bacteria (Streptococcus mutans), Gram negative bacteria (Pseudomonas spp., Escherichia coli, […]) and the yeast Candida albicans. […] Five microliters of the higher alcohol solutions were placed on the surface of a rich (Brain-heart infusion) agar plate immediately after seeding with a mono-specific bacterial or yeast culture. The plates were incubated for 24-48 hours, and, following further microbial proliferation, the diameters of the zones of growth inhibition were measured (results expressed in centimeters). In a further set of experiments, the effect of solvent type on the antimicrobial activity of the C9 alcohol was investigated. […] These solutions were tested for antimicrobial activity towards three microorganisms (M. lysodeikticus, S. mutans and Corynebacterium xerosis) using the same assay as described above. The relationship of the concentration of the C9 alcohol to its antimicrobial activity was also investigated. […] These solutions were tested in the assay described above for their ability to inhibit the growth of the bacteria M. lysodeikticus and S. mutans.

[2] = test system: odor formation in freshly-taken morning saliva; assay: Inhibition of in vitro odor formation by higher alcohols (saliva in decarboxylase medium); type: cell-based; conditions: for effect on in vitro odor formation (summary): 10-50 μl of 1% solution
Protocol: A series of test tubes were prepared, each containing 5 ml of decarboxylase medium (0.5% peptone, 0.3% yeast extract, 0.1% dextrose and 0.02% bromocresol purple). […] The tubes were incubated at 37° C. for three days. Following incubation, the odor was determined by a panel of odor judges, using the following semi-quantitative scale 0=no odor 1=very slight odor […] The higher alcohols tested were alkanols of chain length C8, C9, C10, C11, C12, C14, C16 and C18.

[3] = test system: E. coli; assay: Agar plate zone of growth inhibition; type: cell-based, Escherichia coli; conditions: for inhibition of E. coli (summary): 1% in 100% ethanol
Protocol: (§2) The higher alcohols were tested for antimicrobial activity against Gram positive bacteria (Streptococcus mutans), Gram negative bacteria (Pseudomonas spp., Escherichia coli, […]) and the yeast Candida albicans. […] Five microliters of the higher alcohol solutions were placed on the surface of a rich (Brain-heart infusion) agar plate immediately after seeding with a mono-specific bacterial or yeast culture. The plates were incubated for 24-48 hours, and, following further microbial proliferation, the diameters of the zones of growth inhibition were measured (results expressed in centimeters).

[4] = test system: bacteria and yeast tested; assay: Agar plate growth inhibition, summary statements over the test microorganisms; type: cell-based; conditions: Table VI microorganisms
Protocol: as §1

[5] = test system: C. xerosis; assay: Agar plate zone of growth inhibition; type: cell-based, Corynebacterium xerosis; conditions: solvent alone (100%), no C9
Protocol: Five microliters of the higher alcohol solutions were placed on the surface of a rich (Brain-heart infusion) agar plate immediately after seeding with a mono-specific bacterial or yeast culture. The plates were incubated for 24-48 hours, and, following further microbial proliferation, the diameters of the zones of growth inhibition were measured (results expressed in centimeters). In a further set of experiments, the effect of solvent type on the antimicrobial activity of the C9 alcohol was investigated. […] These solutions were tested for antimicrobial activity towards three microorganisms (M. lysodeikticus, S. mutans and Corynebacterium xerosis) using the same assay as described above.

[6] = test system: Pseudomonas aeruginosa; assay: Agar plate zone of growth inhibition; type: cell-based
Protocol: as §2

[7] = test system: E. faecalis; assay: Agar plate zone of growth inhibition; type: cell-based
Protocol: as §2

[8] = test system: C. albicans; assay: Agar plate zone of growth inhibition; type: cell-based, Candida albicans
Protocol: as §2

[9] = test system: M. lysodeikticus; assay: Agar plate zone of growth inhibition; type: cell-based; conditions: solvent alone (100%), no C9
Protocol: Five microliters of the higher alcohol solutions were placed on the surface of a rich (Brain-heart infusion) agar plate immediately after seeding with a mono-specific bacterial or yeast culture. The plates were incubated for 24-48 hours, and, following further microbial proliferation, the diameters of the zones of growth inhibition were measured (results expressed in centimeters). In a further set of experiments, the effect of solvent type on the antimicrobial activity of the C9 alcohol was investigated. […] These solutions were tested for antimicrobial activity towards three microorganisms (M. lysodeikticus, S. mutans and Corynebacterium xerosis) using the same assay as described above. The relationship of the concentration of the C9 alcohol to its antimicrobial activity was also investigated. […] These solutions were tested in the assay described above for their ability to inhibit the growth of the bacteria M. lysodeikticus and S. mutans.

[10] = 5 μl of 1% solution (C8-C12 in 70% ethanol, C14-C18 in 100% ethanol)
[11] = 10 μl of 1% solution, scale 0-5
[12] = 20 μl of 1% solution, scale 0-5
[13] = 30 μl of 1% solution, scale 0-5
[14] = 40 μl of 1% solution, scale 0-5
[15] = 50 μl of 1% solution (C8-C12 in 70% ethanol, C14-C18 in 100% ethanol) in 5 ml medium + 200 μl saliva, 3 days 37° C., scale 0 no odor to 5 extremely foul
[16] = 50 μl of 1% solution, scale 0-5
[17] = 70% ethanol alone, 100 μl, scale 0-5
[18] = 70% ethanol alone, 200 μl, scale 0-5
[19] = 5 μl of 0.1% solution in 70% ethanol

Compound | Odor Score (Judge 1) [2, 11] | Odor Score (Judge 2) [2, 11] | Odor Score (Judge 1) [2, 12] | Odor Score (Judge 2) [2, 12] | Odor Score (Judge 1) [2, 13] | Odor Score (Judge 2) [2, 13] | Odor Score (Judge 1) [2, 14] | Odor Score (Judge 2) [2, 14] | Odor Score (Judge 1) [2, 15] | Odor Score (Judge 2) [2, 16] | diameter of zone of growth inhibition, E. coli [3, 10] | effect on microbial growth (summary) [4] | diameter of zone of growth inhibition, Pseudomonas aeruginosa [6, 10] | other results
CO [methanol, reference compound] | – | – | – | – | – | – | – | – | – | – | – | – | – | diameter of zone of growth inhibition, C. xerosis [5]: 0.7 centimeters
CCO [Ethanol, ethanol, reference compound] | – | – | – | – | – | – | – | – | – | – | – | – | – | diameter of zone of growth inhibition, Pseudomonas aeruginosa ([6]; 5 μl of 70% Ethanol alone): + −; diameter of zone of growth inhibition, S. mutans ([1]; 5 μl of 100% Ethanol alone): + −; Odor Score (Judge 1) [2, 17]: 5; Odor Score (Judge 2) [2, 17]: 4.5; Odor Score (Judge 1) [2, 18]: 4; Odor Score (Judge 2) [2, 18]: 4.5; diameter of zone of growth inhibition, E. coli ([3]; 5 μl of 100% Ethanol alone): 1.0 centimeters
CCCCCCCCCCCO [C11, 1-undecanol] | 5 | 5 | 0 | 0.5 | 0 | 0 | 0 | 0 | 0 | 0 | 0.7 centimeters | inhibit microbial growth | 0.7 centimeters | diameter of zone of growth inhibition, Pseudomonas aeruginosa [6, 19]: 0.4 centimeters; diameter of zone of growth inhibition, E. faecalis [7, 19]: 1.0 centimeters; effect on in vitro odor formation (summary) [2]: inhibition of odor formation; diameter of zone of growth inhibition, E. coli [3, 19]: 0.7 centimeters; diameter of zone of growth inhibition, C. albicans [8, 19]: 0.7 centimeters; diameter of zone of growth inhibition, C. albicans [8, 10]: 0.8 centimeters
CCCCCCCCCCO [C10, 1-decanol] | 4 | 4 | 0 | 0 | 0 | 0 | 0 | 0 | 0 | 0 | 0.7 centimeters | inhibit microbial growth | 0.8 centimeters | diameter of zone of growth inhibition, Pseudomonas aeruginosa [6, 19]: 0.8 centimeters; diameter of zone of growth inhibition, E. faecalis [7, 19]: 0.9 centimeters; effect on in vitro odor formation (summary) [2]: inhibition of odor formation; diameter of zone of growth inhibition, E. coli [3, 19]: 0.8 centimeters; diameter of zone of growth inhibition, C. albicans [8, 19]: 0.7 centimeters; diameter of zone of growth inhibition, C. albicans [8, 10]: 0.8 centimeters
CCCCCCCCCCCCCCCC[n+]1ccccc1 [CPC, cetylpyridinium chloride, reference compound] | 2 | 2.5 | 0 | 0 | – | – | – | – | – | – | – | – | – | Odor Score (Judge 1) ([2]; 5 μl of 1% solution, scale 0-5): 4; Odor Score (Judge 2) ([2]; 5 μl of 1% solution, scale 0-5): 4
OCC(O)CO [glycerol, reference compound] | – | – | – | – | – | – | – | – | – | – | – | – | – | diameter of zone of growth inhibition, C. xerosis [5]: 0.2 centimeters
N=C(NCCCCCCNC(=N)NC(=N)Nc1ccc(Cl)cc1)NC(=N)Nc1ccc(Cl)cc1.O=C(O)[C@H](O)[C@@H](O)[C@H](O)[C@H](O)CO.O=C(O)[C@H](O)[C@@H](O)[C@H](O)[C@H](O)CO [CHX, chlorhexidine digluconate, reference compound] | 2 | 1 | 0 | 0 | 0 | 0 | 0 | 0 | – | – | – | – | – | Odor Score (Judge 1) ([2]; 5 μl of 1% solution, scale 0-5): 4; Odor Score (Judge 2) ([2]; 5 μl of 1% solution, scale 0-5): 4.5
CC(C)O [2-propanol, reference compound] | – | – | – | – | – | – | – | – | – | – | – | – | – | diameter of zone of growth inhibition, C. xerosis [5]: 0.8 centimeters; diameter of zone of growth inhibition, S. mutans ([1]; solvent alone (100%), no C9): 0.9 centimeters; diameter of zone of growth inhibition, M. lysodeikticus [9]: 1.1 centimeters

Now from value to compound, other results behind:

Odor Score (Judge 1) [2, 11] | Odor Score (Judge 2) [2, 11] | Odor Score (Judge 1) [2, 12] | Odor Score (Judge 2) [2, 12] | Odor Score (Judge 1) [2, 13] | Odor Score (Judge 2) [2, 13] | Odor Score (Judge 1) [2, 14] | Odor Score (Judge 2) [2, 14] | Odor Score (Judge 1) [2, 15] | Odor Score (Judge 2) [2, 16] | Compound | diameter of zone of growth inhibition, E. coli [3, 10] | effect on microbial growth (summary) [4] | diameter of zone of growth inhibition, Pseudomonas aeruginosa [6, 10] | other results
5 | 5 | 5 | 5 | 5 | 5 | 5 | 5 | 4 | 4 | CCCCCCCCCCCCCCO [C14] | 0.9 centimeters | inhibit microbial growth | – | diameter of zone of growth inhibition, S. mutans [1, 10]: 1.0 centimeters
5 | 5 | 5 | 5 | 5 | 5 | 4 | 4 | 3.5 | 4 | CCCCCCCCCCCCCCCCCCO [C18] | 0.8 centimeters | – | – | inhibition of S. mutans (summary) [1]: not of S. mutans; diameter of zone of growth inhibition, S. mutans [1, 10]: + −; inhibition of E. coli (summary) [3]: moderate inhibition
5 | 5 | 4 | 4 | 3 | 3 | 2 | 3 | 2 | 3.5 | CCCCCCCCCCCCO [C12] | – | inhibit microbial growth | + − | diameter of zone of growth inhibition, Pseudomonas aeruginosa [6, 19]: + −; diameter of zone of growth inhibition, E. faecalis [7, 10]: 0.7 centimeters; diameter of zone of growth inhibition, E. coli [3, 19]: 0.6 centimeters; diameter of zone of growth inhibition, C. albicans [8, 19]: 0.6 centimeters
4 | 3 | 3 | 3 | 3 | 3 | 4 | 3 | 4 | 4 | CCCCCCCCO [C8] | – | – | 0.5 centimeters | diameter of zone of growth inhibition, E. faecalis [7, 10]: + −; inhibition of the yeast C. albicans (summary) ([8]; opaque inhibition zone on the agar plate): only partial inhibition
5 | 5 | 5 | 5 | 5 | 5 | 5 | 5 | 4 | 4 | CCCCCCCCCCCCCCCCO [C16] | 0.7 centimeters | – | – | inhibition of S. mutans (summary) [1]: not of S. mutans; diameter of zone of growth inhibition, S. mutans [1, 10]: + −; inhibition of E. coli (summary) [3]: moderate inhibition

Reference: US20030175216A1, “Oral antimicrobial and anti-odor compositions” (Innoscent LTD., priority 2001, published 2003)
